Read-outs that look alike come from different tables or passages of the source. Marks after values point to notes of the source that are not given here. Residues, ends and D or L forms follow the SMILES beside them.
Columns and labels:
DR11 = assay: DR11
Text: (§1) Table printed on a drawing sheet, Figure 2
Where the first naming reader finds the target: head: DR11

DR15 = assay: DR15
DRB3 = assay: DRB3
DR3 = assay: DR3
Text: as §1
Where the first naming reader finds the target: head: DR3

HLA-DR1 (DRB1*0101) = molecular target: T1, HLA-DR1 (DRB1*0101) (Homo sapiens, UniProt P01903+P01911, A100R/D57E/F55L/F60I/F76Y/I96L/L162R/M171V/P40L/Q125E/R42F/V115G/Y59C); assay: biochemical; assay type: binding; conditions: for IC50: DRB1*0101
T1 construct: endogenous in cells; host or cells: homozygous EBV-transformed human B lymphocyte lines; immunopurified with antibody L243

DR4 = assay: DR4
DRB4 = assay: DRB4
Text: as §1
Where the first naming reader finds the target: head: DRB4

DP402 = assay: DP402
DRB5 = assay: DRB5
HLA-DR7 (DRB1*0701) = HLA-DR7 (DRB1*0701) (Homo sapiens, UniProt P01903+P01911, A100R/A102G/A103Q/D57E/D86V/E43K/F76Y/K127E/L162R/M171V/P40G/Q125H/Q99D/R33Q/R42Y/R54Q/S133A/S66F/T210M/V115G/Y107V/Y59L/Y89S); assay: biochemical; assay type: binding; conditions: read-out: binds with good affinity to DR7
HLA-DR11 (DRB1*1101) = HLA-DR11 (DRB1*1101) (Homo sapiens, UniProt P01903+P01911, A100R/A169T/A87E/I96F/K41T/L162R/M171V/P40S/Q125H/Q178H/Q39Y/Q99D/R42S/S66Y/T262R/V115G/W38E); assay: biochemical; assay type: binding; conditions: read-out: binds with good affinity to DR11
DP401 = assay: DP401
HLA-DR4 (DRB1*0401) = molecular target: T2, HLA-DR4 (DRB1*0401) (Homo sapiens, UniProt P01903+P01911, A100K/A169T/F76Y/I96L/K127E/L162R/M171V/N62H/P40V/Q125Y/R42H/S133A/S149N/S66Y/V115G/V209L/W38E); assay: biochemical; assay type: binding; conditions: read-out: binds with good affinity to DR4
T2 construct: endogenous in cells; host or cells: homozygous EBV-transformed human B lymphocyte lines; immunopurified with antibody L243

HLA-DR15 (DRB1*1501) = molecular target: T3, HLA-DR15 (DRB1*1501) (Homo sapiens, UniProt P01903+P01911); assay: biochemical; assay type: binding; conditions: DRB1*1501; read-out: binds with good affinity to DR15
T3 construct: endogenous in cells; host or cells: homozygous EBV-transformed human B lymphocyte lines; immunopurified with antibody L243

DR7 = assay: DR7
DR1 = assay: DR1
HLA-DRB4 (DRB4*0101) = molecular target: T4, HLA-DRB4 (DRB4*0101) (Homo sapiens, UniProt P01903+P13762, G164S); assay: biochemical; assay type: binding; conditions: read-out: binds with good affinity to DRB4
T4 construct: endogenous in cells; host or cells: homozygous EBV-transformed human B lymphocyte lines; immunopurified with antibody L243

HLA-DRB5 (DRB5*0101) = molecular target: T5, HLA-DRB5 (DRB5*0101) (Homo sapiens, UniProt P01903+Q30154); assay: biochemical; assay type: binding; conditions: read-out: binds with good affinity to DRB5
T5 construct: endogenous in cells; host or cells: homozygous EBV-transformed human B lymphocyte lines; immunopurified with antibody L243

HLA-DR13 (DRB1*1301) = HLA-DR13 (DRB1*1301) (Homo sapiens, UniProt P01903+P01911, A100E/A169T/K41T/L162R/M171V/P40S/Q125H/Q178H/Q39Y/Q99D/R42S/S66N/T262R/W38E/Y61H); assay: biochemical; assay type: binding
[1] = tested on: T lymphocytes derived from PBMCs from patients chronically infected with HCV; assay type: cell-based, human
[2] = read-out: binds with good affinity to DR1
[3] = patient 093, supernatant 48 h, —: not detected

HLA-DR11 (DRB1*1101), sequence (P01903 26-254 limits assumed, other chains not shown): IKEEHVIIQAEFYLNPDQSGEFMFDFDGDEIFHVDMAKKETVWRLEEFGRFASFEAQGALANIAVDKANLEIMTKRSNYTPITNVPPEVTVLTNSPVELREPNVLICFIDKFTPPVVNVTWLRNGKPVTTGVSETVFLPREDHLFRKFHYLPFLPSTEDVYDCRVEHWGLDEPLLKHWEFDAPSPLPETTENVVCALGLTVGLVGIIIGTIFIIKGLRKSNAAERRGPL

SMILES	IC50 (DR11)	IC50 (DR15)	IC50 (DRB3)	IC50 (DR3)	IC50 (DR4)	IC50 (DRB4)	IC50 (DP402)	IC50 (DRB5)	IC50 (HLA-DR7 (DRB1*0701))	IC50 (HLA-DR11 (DRB1*1101))	IC50 (HLA-DR1 (DRB1*0101); [2])	IC50 (DP401)	IC50 (HLA-DR4 (DRB1*0401))	IC50 (HLA-DR15 (DRB1*1501))	IC50 (DR7)	IC50 (DR1)	IC50 (HLA-DRB4 (DRB4*0101))	IC50 (HLA-DRB5 (DRB5*0101))	also measured
CC(C)C[C@H](NC(=O)[C@H](Cc1c[nH]c2ccccc12)NC(=O)CNC(=O)[C@H](C)NC(=O)[C@@H](N)Cc1c[nH]c2ccccc12)C(=O)N[C@@H](CC(C)C)C(=O)N[C@@H](CO)C(=O)N1CCC[C@H]1C(=O)N[C@@H](CCCNC(=N)N)C(=O)NCC(=O)N[C@@H](CO)C(=O)N[C@@H](CCCNC(=N)N)C(=O)N1CCC[C@H]1C(=O)N[C@@H](CO)C(=O)N[C@@H](Cc1c[nH]c2ccccc12)C(=O)O [3C 93-107] (H-WAGWLLSPRGSRPSW-OH; N-terminus and C-terminus assumed)	87 nM	27500 nM	> 100000 nM	50000 nM	60000 nM	5000 nM	> 100000 nM	2570 nM											IC50 (HLA-DR1 (DRB1*0101); competition with biotinylated tracer HA 306-318, read-out: IC50, binding to HLA-DR1): 6330 nM; affinity for HLA-DR1 (in words) (HLA-DR1 (DRB1*0101); legend of FIG. 4): low affinity
CC[C@H](C)[C@H](NC(=O)[C@H](CCC(N)=O)NC(=O)[C@@H](NC(=O)[C@H](CCC(=O)O)NC(=O)CNC(=O)[C@H](CCC(=O)O)NC(=O)[C@@H](NC(=O)[C@H](CCC(N)=O)NC(=O)[C@H](CC(N)=O)NC(=O)[C@@H](N)CCCCN)C(C)C)C(C)C)C(=O)N[C@H](C(=O)N[C@@H](CO)C(=O)N[C@H](C(=O)N[C@@H](C)C(=O)N[C@@H](C)C(=O)N[C@@H](CCC(N)=O)C(=O)N[C@H](C(=O)N[C@@H](Cc1ccccc1)C(=O)N[C@@H](CC(C)C)C(=O)N[C@@H](C)C(=O)N[C@H](C(=O)O)[C@@H](C)O)[C@@H](C)O)[C@@H](C)O)C(C)C [10N 1052-1072]	200 nM	300 nM	10000 nM	2250 nM	24 nM	400 nM	1180 nM	19 nM	< 1000 nM	< 1000 nM	< 1000 nM	2030 nM	< 1000 nM	< 1000 nM	7 nM	400 nM	< 1000 nM	< 1000 nM	
CC(C)C[C@H](NC(=O)[C@H](Cc1c[nH]cn1)NC(=O)[C@H](C)NC(=O)[C@@H](NC(=O)[C@H](CCC(N)=O)NC(=O)[C@H](Cc1ccccc1)NC(=O)[C@H](CO)NC(=O)[C@H](CCC(N)=O)NC(=O)[C@@H]1CCCN1C(=O)[C@@H](NC(=O)[C@@H](NC(=O)[C@@H]1CCCN1C(=O)[C@@H]1CCCN1C(=O)[C@H](CO)NC(=O)[C@H](CO)NC(=O)[C@H](CC(N)=O)NC(=O)[C@H](CC(=O)O)NC(=O)[C@@H](NC(=O)[C@H](Cc1ccccc1)NC(=O)[C@@H](NC(=O)[C@@H]1CCCN1C(=O)[C@H](CO)NC(=O)[C@@H](N)CCCNC(=N)N)C(C)C)[C@@H](C)O)C(C)C)C(C)C)C(C)C)C(=O)N[C@@H](Cc1c[nH]cn1)C(=O)N[C@@H](C)C(=O)N1CCC[C@H]1C(=O)N[C@H](C(=O)NCC(=O)N[C@@H](CO)C(=O)NCC(=O)N[C@@H](CCCCN)C(=O)N[C@@H](CO)C(=O)N[C@H](C(=O)N[C@@H](CCCCN)C(=O)O)[C@@H](C)O)[C@@H](C)O [17N 1206-1239]	550 nM	10000 nM	5250 nM		425 nM	3880 nM	14600 nM		< 1000 nM	< 1000 nM	< 1000 nM	64800 nM	< 1000 nM			55 nM		< 1000 nM	
CC[C@H](C)[C@H](N)C(=O)N[C@@H](CCC(=O)O)C(=O)N[C@@H](CCC(=O)O)C(=O)N[C@H](C(=O)N[C@@H](C)C(=O)N[C@@H](CC(C)C)C(=O)N[C@@H](CO)C(=O)N[C@H](C(=O)N[C@H](C(=O)NCC(=O)N[C@@H](CCC(=O)O)C(=O)N[C@H](C(=O)N1CCC[C@H]1C(=O)N[C@@H](Cc1ccccc1)C(=O)N[C@@H](Cc1ccc(O)cc1)C(=O)NCC(=O)N[C@@H](CCCCN)C(=O)N[C@@H](C)C(=O)N[C@H](C(=O)N1CCC[C@H]1C(=O)N[C@@H](CC(C)C)C(=O)N[C@@H](CCC(=O)O)C(=O)N[C@H](C(=O)N[C@H](C(=O)N[C@@H](CCCCN)C(=O)NCC(=O)O)[C@@H](C)CC)C(C)C)[C@@H](C)CC)[C@@H](C)CC)[C@@H](C)O)[C@@H](C)O)C(C)C [22N 1362-1387] (H-IEEVALSTTGEIPFYGKAIPLEVIKG-OH; N-terminus and C-terminus assumed)	3000 nM	425 nM	32500 nM	21200 nM	1620 nM	4000 nM	10300 nM	200 nM	< 1000 nM		< 1000 nM	8000 nM		< 1000 nM	20 nM			< 1000 nM	
CC[C@H](C)[C@H](NC(=O)[C@H](CC(C)C)NC(=O)[C@H](Cc1c[nH]cn1)NC(=O)[C@H](CCCNC(=N)N)NC(=O)CNC(=O)CNC(=O)[C@H](CCCCN)NC(=O)[C@@H](NC(=O)[C@@H](NC(=O)[C@H](CCC(=O)O)NC(=O)[C@H](CC(C)C)NC(=O)[C@@H]1CCCN1C(=O)[C@@H](NC(=O)[C@H](C)NC(=O)[C@H](CCCCN)NC(=O)CN)[C@@H](C)CC)C(C)C)[C@@H](C)CC)C(=O)N[C@@H](Cc1ccccc1)C(=O)N[C@@H](CS)C(=O)N[C@@H](Cc1c[nH]cn1)C(=O)N[C@@H](CO)C(=O)N[C@@H](CCCCN)C(=O)N[C@@H](CCCCN)C(=O)N[C@@H](CCCCN)C(=O)N[C@@H](C)C(=O)N[C@@H](CC(=O)O)C(=O)N[C@@H](CCC(=O)O)C(=O)N[C@@H](CC(C)C)C(=O)O [23N 1377-1403] (H-GKAIPLEVIKGGRHLIFCHSKKKADEL-OH; N-terminus and C-terminus assumed)			> 10000 nM		3000 nM	900 nM		3 nM	< 1000 nM	< 1000 nM	< 1000 nM						< 1000 nM	< 1000 nM	IC50 (HLA-DR13 (DRB1*1301); read-out: binds with good affinity to DR13): < 1000 nM; IL2 ([1]; patient 067, supernatant 48 h, —: not detected): — 51 pg/ml; IL10 ([1]; patient 078, supernatant 48 h, —: not detected): 54 pg/mL; IFNγ [1, 3]: 57 pg/mL; IL4 [1, 3]: 23 pg/mL; IL10 ([1]; patient 659, supernatant 48 h, —: not detected): 29 pg/mL; IL10 ([1]; patient 815, assay at 24 h instead of 48 h): 63* — pg/ml; IL2 ([1]; patient 815, supernatant 48 h, —: not detected): 58 pg/mL
CC[C@H](C)[C@H](NC(=O)[C@H](Cc1c[nH]cn1)NC(=O)[C@H](CCCNC(=N)N)NC(=O)[C@@H](NC(=O)[C@@H](NC(=O)[C@H](CC(C)C)NC(=O)[C@H](CCCNC(=N)N)NC(=O)[C@@H](NC(=O)[C@H](CCCNC(=N)N)NC(=O)[C@H](CCC(=O)O)NC(=O)[C@@H](N)[C@@H](C)O)C(C)C)C(C)C)[C@@H](C)O)C(=O)N[C@@H](Cc1ccc(O)cc1)C(=O)N[C@@H](CC(N)=O)C(=O)N[C@@H](CCCNC(=N)N)C(=O)N[C@@H](CCC(=O)O)C(=O)N[C@@H](CCC(=O)O)C(=O)O [B1 21-36, reference compound] (H-TERVRLVTRHIYNREE-OH; N-terminus and C-terminus assumed)																			IC50 (HLA-DR13 (DRB1*1301); tracer B1 21-36, read-out: IC50, binding to HLA-DR13): 330 nM

Reference: patent US20060110401A1, “Mixture of peptides from c and ns3 proteins of the hepatitis c virus and applications thereof” (priority 2002, published 2006)
